Several values for one entry are separate records, joined by “and”; a condition that tells them apart may be missing. Equal values may be shown once. Read-outs that look alike come from different tables or passages of the source.
How the values were obtained:
[1] = test system: HIV-1NL4-3; assay: Anti-HIV-1 assay in TZM-GFP cells; settings: for Inhibition% at 20 μM: 20 μM compound; for Inhibition% at 2 μM: 2 μM compound
[2] = Microsomal stability assay, human liver microsomes; settings: without Cobi; for Phase I metabolic stability t1/2, HLM: 1 μM compound, 0.5 mg/mL microsomal protein, NADPH
[3] = Microsomal stability assay, mouse liver microsomes; settings: without Cobi, 1 μM compound, 0.5 mg/mL microsomal protein, NADPH
[4] = human, microsomes
[5] = mouse, microsomes
[6] = HLMs; cited from earlier work

Molecule | Inhibition% at 20 μM [1] | Phase I metabolic stability t1/2, HLM [2] | Phase I metabolic stability t1/2, MLM [3] | Inhibition% at 2 μM [1] | also measured
2-(2-(2,4-Dioxo-1,3-diazaspiro[4.5]decan-3-yl)acetamido)-N-methyl-3-phenyl-N-(p-tolyl)propanamide [Compound 47] | −/92% | 3.3 min | 1.2 min | – | –
CN(C(=O)[C@H](Cc1ccccc1)NC(=O)Cc1ccc2ccccc2c1)c1ccc(Cl)cc1 [Compound 27, (S)-N-(4-Chlorophenyl)-N-methyl-2-(2-(naphthalen-2-yl)acetamido)-3-phenylpropanamide] | 100% | – | – | 95% | Phase I metabolic stability t1/2, HLM [4]: 2.7 min; Phase I metabolic stability t1/2, MLM [5]: 1.4 min
COc1ccc(N(C)C(=O)C(Cc2ccccc2)NC(=O)CN2C(=O)NC3(CCCCC3)C2=O)cc1 (stereo not shown) [Compound 46, 2-(2-(2,4-Dioxo-1,3-diazaspiro[4.5]decan-3-yl)acetamido)-N-(4-methoxyphenyl)-N-methyl-3-phenylpropanamide] | −/93% | 5.2 min | 0.7 min | – | fold improved half-life over PF74 in HLMs [2]: 7 to 10 fold
CN(C(=O)C(Cc1ccccc1)NC(=O)CN1C(=O)NC2(CCCCC2)C1=O)c1ccc(F)cc1 (stereo not shown) [Compound 48, 2-(2-(2,4-Dioxo-1,3-diazaspiro[4.5]decan-3-yl)acetamido)-N-(4-fluorophenyl)-N-methyl-3-phenylpropanamide] | 99% | 1.1 min | 0.5 min | 9% | –
CN(C(=O)C(Cc1ccccc1)NC(=O)CN1C(=O)NC2(CCCCC2)C1=O)c1ccc(Cl)cc1 (stereo not shown) [Compound 50, N-(4-Chlorophenyl)-2-(2-(2,4-dioxo-1,3-diazaspiro[4.5]decan-3-yl)acetamido)-N-methyl-3-phenylpropanamide] | −/96% | – | – | – | Phase I metabolic stability t1/2, HLM [4]: 2.5 min; Phase I metabolic stability t1/2, MLM [5]: 1.1 min
(2S)-2-(2-(4,7-Dimethyl-2-oxoindolin-3-yl)acetamido)-N-methyl-N,3-diphenylpropanamide [Compound 20] | – | 1.5 min | 0.6 min | – | –
(2S)-N-(3-Chlorophenyl)-2-(2-(4,7-dimethyl-2-oxoindolin-3-yl)acetamido)-N-methyl-3-phenylpropanamide [Compound 24] | – | – | – | – | fold improved half-life over PF74 in HLMs [2]: 7 to 10 fold and 10 fold; Phase I metabolic stability t1/2, HLM [4]: 6.7 min; Phase I metabolic stability t1/2, MLM [5]: 1.4 min
(2S)-N-Methyl-2-(2-(7-methyl-2-oxoindolin-3-yl)acetamido)-N,3-diphenylpropanamide [Compound 16] | 91% | 7.0 min | 1 min | 0% | fold improved half-life over PF74 in HLMs [2]: 7 to 10 fold
(S)-2-(2-(1,3-Dimethyl-2,6-dioxo-1,2,3,6-tetrahydro-7H-purin-7-yl)acetamido)-N-methyl-N,3-diphenylpropanamide [Compound 37] | 94% | 4.7 min | 1.2 min | 10% | fold improved half-life over PF74 in HLMs [2]: 7 to 10 fold
(S)-2-(2-(5-Methoxy-1H-indol-3-yl)acetamido)-N-methyl-N,3-diphenylpropanamide [Compound 3] | – | 1.2 min | 0.5 min | – | –
(S)-N-(3-Chlorophenyl)-2-(2-(5-hydroxy-1H-indol-3-yl)acetamido)-N-methyl-3-phenylpropanamide [Compound 13] | – | – | – | – | fold potency drop on moving the Cl from 4 position to 3 ([1]; compared with 4-Cl analog 12): 10 fold
(S)-N-(3-Chlorophenyl)-N-methyl-2-(2-(naphthalen-1-yl)acetamido)-3-phenylpropanamide [Compound 34] | 96% | – | – | 53% | –
(S)-N-(3-Chlorophenyl)-N-methyl-2-(2-(naphthalen-2-yl)acetamido)-3-phenylpropanamide [Compound 28] | 94% | – | – | 0% | –
(S)-N-(3-Fluorophenyl)-N-methyl-2-(2-(naphthalen-1-yl)acetamido)-3-phenylpropanamide [Compound 35] | 97% | – | – | 44% | –
(S)-N-(3-Fluorophenyl)-N-methyl-2-(2-(naphthalen-2-yl)acetamido)-3-phenylpropanamide [Compound 29] | 97% | – | – | 0% | –
(S)-N-(4-Chlorophenyl)-2-(2-(1,3-dimethyl-2,6-dioxo-1,2,3,6-tetrahydro-7H-purin-7-yl)acetamido)-N-methyl-3-phenylpropanamide [Compound 41] | 96% | – | – | 6% | –
(S)-N-(4-Chlorophenyl)-2-(2-(5-hydroxy-1H-indol-3-yl)acetamido)-N-methyl-3-phenylpropanamide [Compound 12] | – | – | – | – | fold higher antiviral potency than PF74 ([1]; EC50 compared with PF74): up to 20 fold
(S)-N-(4-Chlorophenyl)-2-(2-(5-methoxy-1H-indol-3-yl)acetamido)-N-methyl-3-phenylpropanamide [Compound 7] | – | 1.8 min | 0.6 min | – | –
(S)-N-(4-Chlorophenyl)-N-methyl-2-(2-(naphthalen-1-yl)acetamido)-3-phenylpropanamide [Compound 33] | 100% | – | – | 98% | Phase I metabolic stability t1/2, HLM [4]: 1.1 min; Phase I metabolic stability t1/2, MLM [5]: 0.6 min
(S)-N-Ethyl-2-(2-(naphthalen-1-yl)acetamido)-N,3-diphenylpropanamide [Compound 36] | 98% | – | – | 53% | –
(S)-N-Ethyl-2-(2-(naphthalen-2-yl)acetamido)-N,3-diphenylpropanamide [Compound 30] | 97% | – | – | 46% | –
(S)-N-Methyl-2-(2-(2-methyl-1H-indol-3-yl)acetamido)-N,3-diphenylpropanamide [PF74, reference compound] | 98% | – | – | 91% | Phase I metabolic stability t1/2, MLM [5]: 0.6 min; half-life (t1/2) in human liver microsomes [6]: less than 1 min
(S)-N-Methyl-2-(2-(naphthalen-1-yl)acetamido)-3-phenyl-N-(p-tolyl)propanamide [Compound 32] | 100% | – | – | 96% | –
(S)-N-Methyl-2-(2-(naphthalen-1-yl)acetamido)-N,3-diphenylpropanamide [Compound 31] | 100% | 0.6 min | 0.5 min | 66% | –
(S)-N-Methyl-2-(2-(naphthalen-2-yl)acetamido)-3-phenyl-N-(p-tolyl)propanamide [Compound 26] | 99% | – | – | 80% | –
(S)-N-Methyl-2-(2-(naphthalen-2-yl)acetamido)-N,3-diphenylpropanamide [Compound 25] | 98% | 1.8 min | 0.5 min | 40% | –
N-(3-Bromophenyl)-2-(2-(2,4-dioxo-1,3-diazaspiro[4.5]decan-3-yl)acetamido)-N-methyl-3-phenylpropanamide [Compound 52] | −/36% | – | – | – | –
N-(3-Chlorophenyl)-2-(2-(2,4-dioxo-1,3-diazaspiro[4.5]decan-3-yl)acetamido)-N-methyl-3-phenylpropanamide [Compound 51] | 98% | – | – | 9% | –
